For the experiment, the target named is T1, recombinant human Myt1 (full length PKMYT1) (Homo sapiens, UniProt Q99640).
T1 sequence (Q99640 1-499): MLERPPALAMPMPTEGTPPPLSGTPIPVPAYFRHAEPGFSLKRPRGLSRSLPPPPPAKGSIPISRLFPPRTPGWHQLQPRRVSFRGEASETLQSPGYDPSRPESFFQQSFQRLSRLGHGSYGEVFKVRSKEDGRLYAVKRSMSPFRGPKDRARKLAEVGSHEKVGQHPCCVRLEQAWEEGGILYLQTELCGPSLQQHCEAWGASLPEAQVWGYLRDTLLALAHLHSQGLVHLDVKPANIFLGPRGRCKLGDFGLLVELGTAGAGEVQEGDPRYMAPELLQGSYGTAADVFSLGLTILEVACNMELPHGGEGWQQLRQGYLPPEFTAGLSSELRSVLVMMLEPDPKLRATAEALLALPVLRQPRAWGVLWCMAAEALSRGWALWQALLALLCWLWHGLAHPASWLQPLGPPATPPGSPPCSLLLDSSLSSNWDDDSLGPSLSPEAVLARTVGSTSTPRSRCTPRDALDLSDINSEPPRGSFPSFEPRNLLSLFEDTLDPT
In words: ADP-Glo assay (Myt1 kinase activity). In general terms: ADP-Glo first removes unused ATP, then detects ADP through luciferase.
As to `Nc1c(-c2ccc(F)c3[nH]ncc23)c2nc(C3CC3)c(Cl)cc2[nH]c1=O` [Example 55, 3-Amino-7-chloro-6-cyclopropyl-4-(7-fluoro-1H-indazol-4-yl)-1H-1,5-naphthyridin-2-one], the IC50 turned out to be 0.0124 µM.
With `Cc1cc2[nH]c(=O)c(N)c(-c3ccc(F)c4[nH]ncc34)c2nc1N1CC2CCC1CN2C` (stereo not shown) [Example 31, 3-Amino-4-(7-fluoro-1H-indazol-4-yl)-7-methyl-6-(5-methyl-2,5-diazabicyclo[2.2.2]octan-2-yl)-1H-1,5-naphthyridin-2-one], the half-maximal inhibitory concentration (IC50) stood at 0.0213 µM.
As for `Cc1cnc2c(-c3ccc(F)c4[nH]ncc34)c(N)c(=O)[nH]c2c1Cl` [Example 53, 3-Amino-8-chloro-4-(7-fluoro-1H-indazol-4-yl)-7-methyl-1H-1,5-naphthyridin-2-one], the IC50 turned out to be 0.0107 µM.
With `Nc1c(-c2cccc3[nH]ncc23)c2ncc(-c3nccs3)cc2[nH]c1=O` [Example 35, 3-Amino-4-(1H-indazol-4-yl)-7-thiazol-2-yl-1H-1,5-naphthyridin-2-one], the IC50 was 0.0256 µM.
With `Cc1c([C@@H]2C[C@H]2C)cnc2c(-c3ccc(F)c4[nH]ncc34)c(N)c(=O)[nH]c12` (racemic) [Example 144, 3-Amino-4-(7-fluoro-1H-indazol-4-yl)-8-methyl-7-[rac-(1R,2R)-2-methylcyclopropyl]-1H-1,5-naphthyridin-2-one], the IC50 came out at 0.0114 µM.
As for `Cc1cc2[nH]c(=O)c(N)c(-c3ccc(F)c4[nH]ncc34)c2cc1Br` [Example 104, 3-Amino-6-bromo-4-(7-fluoro-1H-indazol-4-yl)-7-methyl-1H-quinolin-2-one], the IC50 was 0.0157 µM.
As to `CCCOc1cnc(C)c2[nH]c(=O)c(N)c(-c3ccc(F)c4[nH]ncc34)c12` [Example 190, 3-Amino-4-(7-fluoro-1H-indazol-4-yl)-8-methyl-5-propoxy-1H-1,7-naphthyridin-2-one], the IC50 stood at 0.0153 µM.
With `C=Cc1cnc2c(-c3ccc(F)c4[nH]ncc34)c(N)c(=O)[nH]c2c1C` [Example 123, 3-Amino-4-(7-fluoro-1H-indazol-4-yl)-8-methyl-7-vinyl-1H-1,5-naphthyridin-2-one], the IC50 was less than 0.01 µM.
Turning to `Cc1cc2[nH]c(=O)c(N)c(-c3ccc(F)c4[nH]ncc34)c2cc1N1CC2(COC2)C1` [Example 105, 3-Amino-4-(7-fluoro-1H-indazol-4-yl)-7-methyl-6-(2-oxa-6-azaspiro[3.3]heptan-6-yl)-1H-quinolin-2-one], the IC50 was determined as 0.0185 µM.
In the case of `CCOc1cnc2c(-c3ccc(F)c4[nH]ncc34)c(N)c(=O)[nH]c2c1C` [Example 140, 3-Amino-7-ethoxy-4-(7-fluoro-1H-indazol-4-yl)-8-methyl-1H-1,5-naphthyridin-2-one], the IC50 came out at 0.0118 µM.
With `Cc1cnc2c(-c3ccc(F)c4[nH]ncc34)c(N)c(=O)[nH]c2c1C(F)F` [Example 145, 3-Amino-8-(difluoromethyl)-4-(7-fluoro-1H-indazol-4-yl)-7-methyl-1H-1,5-naphthyridin-2-one] the figure was 0.0185 µM; with `Cn1cncc1-c1cnc2c(-c3ccc(F)c4[nH]ncc34)c(N)c(=O)[nH]c2c1` [Example 8, 3-Amino-4-(7-fluoro-1H-indazol-4-yl)-7-(3-methylimidazol-4-yl)-1H-1,5-naphthyridin-2-one], 0.0116 µM; with `Cc1cc2[nH]c(=O)c(N)c(-c3ccc(F)c4[nH]ncc34)c2cc1C` [Example 48, 3-Amino-4-(7-fluoro-1H-indazol-4-yl)-6,7-dimethyl-1H-quinolin-2-one], 0.0271 µM.
Take `Cc1cc2[nH]c(=O)c(N)c(-c3ccc(F)c4[nH]ncc34)c2nc1OCCN(C)C` [Example 068, 3-Amino-6-[2-(dimethylamino)ethoxy]-4-(7-fluoro-1H-indazol-4-yl)-7-methyl-1H-1,5-naphthyridin-2-one]: the IC50 was determined as 0.0175 µM.
For `Cc1nc2c(-c3ccc(F)c4[nH]ncc34)c(N)c(=O)[nH]c2c(Cl)c1C` [Example 57, 3-Amino-8-chloro-4-(7-fluoro-1H-indazol-4-yl)-6,7-dimethyl-1H-1,5-naphthyridin-2-one], the 50% inhibitory concentration (IC50) stood at 0.0117 µM.
Regarding `COC(=O)c1nc2c(-c3ccc(F)c4[nH]ncc34)c(N)c(=O)[nH]c2cc1C` [Example 087, Methyl 7-amino-8-(7-fluoro-1H-indazol-4-yl)-3-methyl-6-oxo-5H-1,5-naphthyridine-2-carboxylate], the IC50 is 0.0123 µM.
With `Cc1ncc(C)c2c(-c3ccc(F)c4[nH]ncc34)c(N)c(=O)[nH]c12` [Example 177, 3-Amino-4-(7-fluoro-1H-indazol-4-yl)-5,8-dimethyl-1H-1,7-naphthyridin-2-one], the IC50 is 0.0139 µM.
As to `COCC#Cc1nc2c(-c3ccc(F)c4[nH]ncc34)c(N)c(=O)[nH]c2cc1C` [Example 071, 3-Amino-4-(7-fluoro-1H-indazol-4-yl)-6-(3-methoxyprop-1-ynyl)-7-methyl-1H-1,5-naphthyridin-2-one], the IC50 was found to be 0.0131 µM.
As for `Cc1cc2[nH]c(=O)c(N)c(-c3ccc(F)c4[nH]ncc34)c2nc1OC1CC(C(C)(C)O)C1` (stereo not shown) [Example 096, 3-Amino-4-(7-fluoro-1H-indazol-4-yl)-6-[3-(1-hydroxy-1-methyl-ethyl)cyclobutoxy]-7-methyl-1H-1,5-naphthyridin-2-one], the IC50 turned out to be 0.0652 µM.
As to `Cc1cc2[nH]c(=O)c(N)c(-c3ccc(F)c4[nH]ncc34)c2nc1C(C)(C)O` [Example 088, 3-Amino-4-(7-fluoro-1H-indazol-4-yl)-6-(1-hydroxy-1-methyl-ethyl)-7-methyl-1H-1,5-naphthyridin-2-one], the IC50 was determined as 0.047 µM.
On to `COC(=O)C1CC(Oc2nc3c(-c4ccc(F)c5[nH]ncc45)c(N)c(=O)[nH]c3cc2C)C1` (stereo not shown) [Example 067, Methyl 3-[[7-amino-8-(7-fluoro-1H-indazol-4-yl)-3-methyl-6-oxo-5H-1,5-naphthyridin-2-yl]oxy]cyclobutanecarboxylate], for which the IC50 was 0.0244 µM.
With `Cc1cc2[nH]c(=O)c(N)c(-c3ccc(F)c4[nH]ncc34)c2nc1NC(C)C` [Example 23, 3-Amino-4-(7-fluoro-1H-indazol-4-yl)-6-(isopropylamino)-7-methyl-1H-1,5-naphthyridin-2-one] the figure was 0.0107 µM; with `Cc1c(OC2CCC2)cnc2c(-c3ccc(F)c4[nH]ncc34)c(N)c(=O)[nH]c12` [Example 139, 3-Amino-7-(cyclobutoxy)-4-(7-fluoro-1H-indazol-4-yl)-8-methyl-1H-1,5-naphthyridin-2-one], 0.0132 µM.
As to `Nc1c(-c2cc(F)cc3[nH]ncc23)c2ncc(Cl)cc2[nH]c1=O` [Example 36, 3-Amino-7-chloro-4-(6-fluoro-1H-indazol-4-yl)-1H-1,5-naphthyridin-2-one], the IC50 is 0.0378 µM.
`Cc1c(F)cnc2c(-c3ccc(F)c4[nH]ncc34)c(N)c(=O)[nH]c12` [Example 135, 3-Amino-7-fluoro-4-(7-fluoro-1H-indazol-4-yl)-8-methyl-1H-1,5-naphthyridin-2-one]: the IC50 came to 0.014 µM.
Take `Cc1cc2[nH]c(=O)c(N)c(-c3ccc(F)c4[nH]ncc34)c2nc1-c1cccs1` [Example 151, 3-Amino-4-(7-fluoro-1H-indazol-4-yl)-7-methyl-6-(2-thienyl)-1H-1,5-naphthyridin-2-one]: the IC50 came out at 0.013 µM.
Then `Cc1ncc(OC2CC2)c2c(-c3ccc(F)c4[nH]ncc34)c(N)c(=O)[nH]c12` [Example 187, 3-Amino-5-(cyclopropoxy)-4-(7-fluoro-1H-indazol-4-yl)-8-methy-1H-1,7-naphthyridin-2-one], with 0.0108 µM; and `Cc1c(C2CC2F)cnc2c(-c3ccc(F)c4[nH]ncc34)c(N)c(=O)[nH]c12` (stereo not shown) [Example 132, 3-Amino-7-(2-fluorocyclopropyl)-4-(7-fluoro-1H-indazol-4-yl)-8-methyl-1H-1,5-naphthyridin-2-one], with less than 0.01 µM.
As for `Cc1cc2[nH]c(=O)c(N)c(-c3ccc(F)c4[nH]ncc34)c2nc1N1CCOCC1` [Example 25, 3-Amino-4-(7-fluoro-1H-indazol-4-yl)-7-methyl-6-morpholino-1H-1,5-naphthyridin-2-one], the IC50 stood at 0.0188 µM.
For `Cc1cc2[nH]c(=O)c(N)c(-c3ccc(F)c4[nH]ncc34)c2nc1OCC(C)(C)O` [Example 078, 3-Amino-4-(7-fluoro-1H-indazol-4-yl)-6-(2-hydroxy-2-methyl-propoxy)-7-methyl-1H-1,5-naphthyridin-2-one], the IC50 came to 0.0172 µM.
With `C#Cc1nc2c(-c3ccc(F)c4[nH]ncc34)c(N)c(=O)[nH]c2c(Cl)c1C` [Example 111, 3-Amino-8-chloro-6-ethynyl-4-(7-fluoro-1H-indazol-4-yl)-7-methyl-1H-1,5-naphthyridin-2-one], the 50% inhibitory concentration (IC50) is less than 0.01 µM.
Then `CC(C)(O)c1cnc2c(-c3ccc(F)c4[nH]ncc34)c(N)c(=O)[nH]c2c1` [Example 20, 3-Amino-4-(7-fluoro-1H-indazol-4-yl)-7-(1-hydroxy-1-methyl-ethyl)-1H-1,5-naphthyridin-2-one], with 0.0242 µM; and `CC(=O)c1nc2c(-c3ccc(F)c4[nH]ncc34)c(N)c(=O)[nH]c2c(Cl)c1C` [Example 112, 6-Acetyl-3-amino-8-chloro-4-(7-fluoro-1H-indazol-4-yl)-7-methyl-1H-1,5-naphthyridin-2-one], with less than 0.01 µM; and `Cc1cc2[nH]c(=O)c(N)c(-c3ccc(F)c4[nH]ncc34)c2nc1N1CC2(COC2)C1` [Example 26, 3-Amino-4-(7-fluoro-1H-indazol-4-yl)-7-methyl-6-(2-oxa-6-azaspiro[3.3]heptan-6-yl)-1H-1,5-naphthyridin-2-one], with less than 0.01 µM.

A word on the IC50: it is the concentration that inhibits the measured activity by half.

These data come from patent publication US20260078122A1, “INDAZOLE COMPOUNDS AS PKMYT1 KINASE INHIBITORS” (Hoffmann-La Roche Inc., priority 2023, published 2026).
